In assay [1] the target is T1, recombinant human 17β-HSD1 (Homo sapiens, UniProt P14061).
T1 construct: made in house; host or cells: Sd9 (Sf9) insect cells, baculovirus (Bac to Bac Expression System)
T1 sequence (P14061 1-328): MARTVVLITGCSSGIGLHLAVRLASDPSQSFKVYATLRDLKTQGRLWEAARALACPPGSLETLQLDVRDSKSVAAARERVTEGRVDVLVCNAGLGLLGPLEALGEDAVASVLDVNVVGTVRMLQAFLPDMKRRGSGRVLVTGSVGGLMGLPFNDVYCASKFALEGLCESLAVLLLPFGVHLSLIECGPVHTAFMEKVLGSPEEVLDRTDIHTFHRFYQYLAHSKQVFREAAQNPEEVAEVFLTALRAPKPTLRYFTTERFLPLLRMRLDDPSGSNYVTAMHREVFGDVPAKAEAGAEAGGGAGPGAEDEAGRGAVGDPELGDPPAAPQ
The assay is described as follows: Inhibition of recombinant human 17β-HSD1 (estrone to estradiol conversion, HPLC/radioactivity). In kind it is biochemical. The settings on record: compound 100 nM; 30 nM estrone, 1 mM NADPH, 30 min RT. The method in brief:
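Microsomal human 17β-HSD1 from Sf9 baculovirus (1 μg/ml) was incubated 30 min at RT in 20 mM KH2PO4 pH 7.4 with 30 nM ^3H-estrone, 1 mM NADPH and inhibitor at 1 μM or 0.1 μM (1% DMSO). Estrone and estradiol were separated by HPLC with radioactivity detection. % inhibition = 100 − % conversion relative to uninhibited control.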

The test system of assay [2] is HSD1 enzyme that is expressed in rabbit placenta tissue. The assay is described as follows: Inhibition of E1 to E2 conversion in rabbit placenta tissue homogenate. In kind it is biochemical. The following applies: compound 100 nM, 30 nM estrone, 1 mM β-NADPH, 30 min. A digest of the protocol:
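Rabbit placenta homogenate (20 mM KH2PO4, 1 mM EDTA, pH 7.4) incubated 30 min with 1 mM β-NADPH, 30 nM estrone plus 5 nM [3H]-estrone tracer, and inhibitor at 1 μM or 0.1 μM (1% DMSO). Stopped with TCA; estrone and estradiol resolved by HPLC with scintillation counting; % inhibition = 100 − % conversion relative to uninhibited control.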

For `C[C@]12CCC3c4cccc(F)c4CCC3C1[C@H](CCC(=O)Nc1ncc(F)cc1F)c1c[nH]nc12` (stereo partly drawn) [Compound 9, N-(3,5-difluoropyridin-2-yl)-3-((8aS,12S)-3-fluoro-8a-methyl-1,2,6b,7,8,8a,10,12,12a,12b-decahydronaphtho[2′,1′:4,5]indeno[1,2-c]pyrazol-12-yl)propanamide], in assay [1], the inhibition at 0.1 µM was determined as 82%. Further, in assay [2], the “Rabbit placenta inhibition % @100 nM” value is 26%.

Take `C[C@]12CCC3c4cccc(F)c4CCC3C1[C@H](CCC(=O)Nc1cc(F)ccn1)c1c[nH]nc12` (stereo partly drawn) [Compound 15, 3-((8aS,12S)-3-fluoro-8a-methyl-1,2,6b,7,8,8a,10,12,12a,12b-decahydronaphtho[2′,1′:4,5]indeno[1,2-c]pyrazol-12-yl)-N-(4-fluoropyridin-2-yl)propanamide]: the inhibition at 0.1 µM in assay [1] stood at 96%. Also, the “Rabbit placenta inhibition % @100 nM” value in assay [2] turned out to be 64%.

On to `C[C@]12CCC3c4cccc(F)c4CCC3C1[C@H](CCC(=O)Nc1ccccn1)c1c[nH]nc12` (stereo partly drawn) [Compound 18, 3-((8aS,12S)-3-fluoro-8a-methyl-1,2,6b,7,8,8a,10,12,12a,12b-decahydronaphtho[2′,1′:4,5]indeno[1,2-c]pyrazol-12-yl)-N-(pyridin-2-yl)propanamide], for which the inhibition at 0.1 µM in assay [1] turned out to be 91%. Besides, the “Rabbit placenta inhibition % @100 nM” value in assay [2] worked out at 44%.

For `COc1ccc(NC(=O)CC[C@@H]2c3c[nH]nc3[C@@]3(C)CCC4c5cccc(F)c5CCC4C23)nc1` (stereo partly drawn) [Compound 21, 3-((8aS,12S)-3-fluoro-8a-methyl-1,2,6b,7,8,8a,10,12,12a,12b-decahydronaphtho[2′,1′:4,5]indeno[1,2-c]pyrazol-12-yl)-N-(5-methoxypyridin-2-yl)propanamide], in assay [1], the inhibition at 0.1 µM is 97%. For the same compound, the “Rabbit placenta inhibition % @100 nM” value in assay [2] is on record as 68%.

`C[C@]12CCC3c4cccc(F)c4CCC3C1[C@H](CCC(=O)N1CCNC(=O)C1)c1c[nH]nc12` (stereo partly drawn) [Compound 24, 4-(3-((8aS,12S)-3-fluoro-8a-methyl-1,2,6b,7,8,8a,10,12,12a,12b-decahydronaphtho[2′,1′:4,5]indeno[1,2-c]pyrazol-12-yl)propanoyl)piperazin-2-one]: the inhibition at 0.1 µM in assay [1] is 83%. Also, the “Rabbit placenta inhibition % @100 nM” value in assay [2] worked out at 27%.

Turning to `C[C@]12CCC3c4cccc(F)c4CCC3C1[C@H](CCC(=O)Nc1cc3c([nH]c1=O)CCCC3)c1c[nH]nc12` (stereo partly drawn) [Compound 30, 3-((8aS,12S)-3-fluoro-8a-methyl-1,2,6b,7,8,8a,10,12,12a,12b-decahydronaphtho[2′,1′:4,5]indeno[1,2-c]pyrazol-12-yl)-N-(2-oxo-1,2,5,6,7,8-hexahydroquinolin-3-yl)propanamide], the inhibition at 0.1 µM in assay [1] was 95%. Also, the “Rabbit placenta inhibition % @100 nM” value in assay [2] is 53%.

Regarding `CN(C)C(=O)c1ccc(NC(=O)CC[C@@H]2c3c[nH]nc3[C@@]3(C)CCC4c5cccc(F)c5CCC4C23)nc1` (stereo partly drawn) [Compound 33, 6-(3-((8aS,12S)-3-fluoro-8a-methyl-1,2,6b,7,8,8a,10,12,12a,12b-decahydronaphtho[2′,1′:4,5]indeno[1,2-c]pyrazol-12-yl)propanamido)-N,N-dimethylnicotinamide], in assay [1], the inhibition at 0.1 µM amounted to 95%. The “Rabbit placenta inhibition % @100 nM” value in assay [2] is 68%.

With `CC(C)c1ccc(NC(=O)CC[C@@H]2c3c[nH]nc3[C@@]3(C)CCC4c5cccc(F)c5CCC4C23)nc1` (stereo partly drawn) [Compound 36, 3-((8aS,12S)-3-fluoro-8a-methyl-1,2,6b,7,8,8a,10,12,12a,12b-decahydronaphtho[2′,1′:4,5]indeno[1,2-c]pyrazol-12-yl)-N-(5-isopropylpyridin-2-yl)propanamide], the inhibition at 0.1 µM in assay [1] turned out to be 100%. Moreover, in assay [2], the “Rabbit placenta inhibition % @100 nM” value was determined as 55%.

Regarding `C[C@]12CCC3c4cccc(F)c4CCC3C1[C@H](CCC(=O)Nc1ccc(N3CCOCC3)cn1)c1c[nH]nc12` (stereo partly drawn) [Compound 39, 3-((8aS,12S)-3-fluoro-8a-methyl-1,2,6b,7,8,8a,10,12,12a,12b-decahydronaphtho[2′,1′:4,5]indeno[1,2-c]pyrazol-12-yl)-N-(5-morpholinopyridin-2-yl)propanamide], the inhibition at 0.1 µM in assay [1] amounted to 91%. Also, the “Rabbit placenta inhibition % @100 nM” value in assay [2] turned out to be 69%.

The values above are taken from patent US20220041647A1, “ESTRA-1,3,5(10)-TRIENE COMPOUNDS CONDENSED IN POSITION 16(17) WITH A PYRAZOLE RING AS INHIBITORS OF 17-HSD1” (FORENDO PHARMA LTD, priority 2018, published 2022).
